Results reported in patent US8669257B2, “Phenazine derivatives and uses thereof as potassium channel modulators” (The Johns Hopkins University, priority 2007, dated 2014).
Entries after “also recorded” stand apart in the source; their conditions may differ.

What was measured:
[1] = system: IL-2 production in Jurkat T-cells; test: IL-2 secreted from stimulated Jurkat T-cells (ELISA); format: cell-based; conditions: Homo sapiens; PMA/thapsigargin-stimulated Jurkat T-cells, FIG. 1B, n=6
Experimental: Jurkat E6.1 T-cells (1×10^5 in 180 μl) were seeded into 96-well plates. Cells in each well were treated with different concentrations of clofazimine for 1 h before 1 μM ionomycin and 40 nM PMA were added. The incubation was continued for 2 days. The plates were centrifuged at 1,200×g for 5 min, and the supernatant from each well was collected followed by ELISA detection of IL-2. The primary antibody, biotinylated secondary antibody and HRP conjugated avidin were purchase from BD/Pharmingen.

[2] = system: calcineurin-NFATc2 interaction; test: GST-NFATc2 pull-down of calcineurin; format: binding
[3] = target: TRPM4 channel (Homo sapiens, UniProt Q8TD43); test: Activity of TRPM4 channel (data not shown); format: cell-based; conditions: up to 10 μM
[4] = system: human foreskin graft in Pfp/Rag2−/− mice with human PBL; test: Human T-cell-mediated human skin graft rejection in immunodeficient mice; format: in vivo, mouse
Excerpt: Kv1.3 has been implicated in T-cell activation and has served as a molecular target for developing novel immunosuppressive agents. Given that clofazimine is already used in the clinic, albeit for a completely different indication, we wondered whether it is efficacious in animal models of organ transplantation. […] These negative results are not surprising given that Kv1.3 plays distinct roles in humans and rodents, as it has been shown that Kv1.3 is dispensable in mice due to the up-regulation of other chloride channels. […] To overcome this problem, we turned to a model of reconstituted human T-cell-mediated human skin rejection in immunodeficient mice. We thus transplanted human foreskin into Pfb-Rag2−/− mice that lack T, B and NK cells. Upon healing of the skin graft for about 7 days, a total of 100 million human peripheral blood lymphocytes from an unrelated donor were adoptively transferred into the same animals. The animals were treated orally with either DMSO (control) or clofazimine at 50 mg/kg/day for a total of 10 days (FIG. 5A). For the control group, the transplanted foreskin was rejected with a median survival time of 11 days (FIG. 5B).
The experimental procedure is similar to that described previously. Clofazimine suspension in olive oil was administered p.o. at 50 mg/kg/day in a total volume of 0.2 ml per administration.

[5] = target: T1, Kv1.3 (Homo sapiens, UniProt P22001); test: Patch-clamp of Kv1.3 currents in Jurkat T-cells; format: cell-based
T1 construct: endogenous in cells; host or cells: Jurkat T-cells
Experimental: (§1) Patch pipettes, pulled from glass capillaries (inner diameter 1.5 mm, Kimble products) with a horizontal puller (Sutter instruments, Modell P-97), were fire-polished, and had resistances between 2 and 4 MOhm. Patch-clamp experiments were performed in the tight-seal whole-cell configuration at room temperature (22-24° C.). High-resolution current recordings were acquired by a computer-based patch-clamp amplifier system (EPC-9, HEKA). Immediately following establishment of the whole-cell configuration, every two seconds voltage ramps of 50 ms duration spanning the voltage range of −100 to +100 mV for Jurkat T-cells and −150 to +150 mV for HEK293 were delivered from a holding potential (Vh) of −70 mV for Jurkats and 0 mV for HEK293 cells over a period of 300-600 s. […] Capacitive currents and series resistance were determined and corrected before each voltage ramp using the automatic capacitance compensation of the EPC-9. […] Kv1.3 currents in Jurkat T-cells were measured at +80 mV. Heterologously expressed Kv1.1, Kv1.2, Kv1.3, Kv1.5 and Kv3.1 were assessed at +80 mV except in Figure S7, where currents were additionally measured at the more physiological voltage of 0 mV. CRAC currents in HEK293 cells were assessed at −80 mV. […]

[6] = target: T2, mouse Kv1.3 (Mus musculus, UniProt P16390); test: Patch-clamp of heterologous mouse Kv1.3 expressed in L929 cells; format: cell-based
T2 construct: expressed in transfected cells; host or cells: L929 cells
Experimental: as §1

[7] = target: calcium-activated IKCa1 potassium channel (Homo sapiens, UniProt O15554); test: Activity of IKCa1 channel (data not shown); format: cell-based; conditions: up to 10 μM
[8] = system: mouse skin or heart transplant; test: Mouse skin or heart transplant models (initial experiments); format: in vivo
[9] = system: NF-κB luciferase reporter; test: NF-κB luciferase reporter assay in Jurkat T-cells; format: cell-based, human; conditions: FIG. 1C
[10] = system: calcineurin; test: Calcineurin enzymatic activity in vitro; format: biochemical; conditions: substrates para-nitrophenylphosphate or immunoprecipitated NFATc2
[11] = target: T3, mouse Kv3.1 (Mus musculus, UniProt P15388); test: Patch-clamp of heterologous mouse Kv3.1 expressed in L929 cells; format: cell-based
T3 construct: expressed in transfected cells; host or cells: L929 cells
Experimental: as §1

[12] = system: calcium oscillation in Jurkat T-cells; test: Calcium oscillation in Jurkat T-cells (10 nM TG); format: cell-based, human; conditions: for cells with elongated calcium oscillation period: 10 nM TG, Jurkat T-cells
Experimental: JurkaT-cells were attached to L-lysine-coated glass dishes (MatTek). Cells were loaded with fura-2-AM (Invitrogen_F-1201) for 45 min before they were washed sequentially with growth medium and Ca^2+-free HBSS. Fluorescence excitation wavelengths were set at 350 and 380 nm, respectively, on a Zeiss Axiovert 200M microscope while emission wavelength was set at 510 nm. Changes in intracellular calcium concentrations were determined by fluorescence intensity ratio ([…]/F380).

[13] = system: CRAC channel (CRACM1, CRACM2, CRACM3 with STIM1); test: Patch-clamp of reconstituted CRAC current in HEK293 cells; format: cell-based; conditions: CRACM1, CRACM2 or CRACM3 with STIM1 in HEK293 cells
Experimental: as §1

T2 sequence (P16390 whole entry): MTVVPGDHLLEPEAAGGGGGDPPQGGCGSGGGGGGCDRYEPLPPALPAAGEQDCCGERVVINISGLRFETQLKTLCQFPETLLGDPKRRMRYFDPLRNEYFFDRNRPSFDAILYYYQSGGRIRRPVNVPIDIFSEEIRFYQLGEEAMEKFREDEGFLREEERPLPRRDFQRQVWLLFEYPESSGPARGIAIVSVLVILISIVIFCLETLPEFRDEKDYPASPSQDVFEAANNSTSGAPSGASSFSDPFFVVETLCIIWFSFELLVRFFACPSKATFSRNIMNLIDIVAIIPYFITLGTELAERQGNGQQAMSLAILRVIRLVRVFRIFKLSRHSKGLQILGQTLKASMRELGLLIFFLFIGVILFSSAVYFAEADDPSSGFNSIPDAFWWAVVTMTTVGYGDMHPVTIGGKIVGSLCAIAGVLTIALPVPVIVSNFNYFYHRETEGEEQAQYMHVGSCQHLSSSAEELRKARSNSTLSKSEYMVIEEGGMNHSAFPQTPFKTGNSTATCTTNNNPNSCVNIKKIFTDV
T3 sequence (P15388 whole entry): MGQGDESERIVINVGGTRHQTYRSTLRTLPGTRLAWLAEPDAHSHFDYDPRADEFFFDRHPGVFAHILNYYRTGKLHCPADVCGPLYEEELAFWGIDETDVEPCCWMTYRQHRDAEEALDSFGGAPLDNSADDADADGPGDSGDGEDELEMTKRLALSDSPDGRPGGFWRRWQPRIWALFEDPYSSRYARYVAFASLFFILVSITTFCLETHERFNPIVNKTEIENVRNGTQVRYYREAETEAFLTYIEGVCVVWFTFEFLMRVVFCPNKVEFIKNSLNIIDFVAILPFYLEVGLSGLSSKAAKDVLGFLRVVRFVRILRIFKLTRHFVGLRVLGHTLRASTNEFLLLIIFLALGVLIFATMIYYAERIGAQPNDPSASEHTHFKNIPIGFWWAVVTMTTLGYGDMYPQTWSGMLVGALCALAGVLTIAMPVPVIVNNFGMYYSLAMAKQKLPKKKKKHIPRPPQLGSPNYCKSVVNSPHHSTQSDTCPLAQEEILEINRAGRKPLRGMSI
T1 sequence (P22001 whole entry): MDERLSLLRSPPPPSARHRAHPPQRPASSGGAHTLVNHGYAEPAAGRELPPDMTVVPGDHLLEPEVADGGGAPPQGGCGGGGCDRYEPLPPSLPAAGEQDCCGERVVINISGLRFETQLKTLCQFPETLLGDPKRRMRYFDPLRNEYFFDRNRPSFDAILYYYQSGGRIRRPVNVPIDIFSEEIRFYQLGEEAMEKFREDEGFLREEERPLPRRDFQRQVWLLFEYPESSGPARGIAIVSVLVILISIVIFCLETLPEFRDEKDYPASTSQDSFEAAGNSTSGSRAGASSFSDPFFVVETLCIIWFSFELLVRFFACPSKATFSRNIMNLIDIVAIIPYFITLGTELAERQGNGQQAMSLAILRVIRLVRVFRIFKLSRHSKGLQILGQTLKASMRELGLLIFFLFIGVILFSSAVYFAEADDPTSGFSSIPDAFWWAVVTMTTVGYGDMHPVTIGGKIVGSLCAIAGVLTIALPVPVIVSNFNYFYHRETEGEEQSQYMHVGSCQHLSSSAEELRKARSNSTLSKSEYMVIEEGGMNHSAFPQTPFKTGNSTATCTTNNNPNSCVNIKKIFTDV
Chain of TRPM4 channel (Q8TD43 whole entry): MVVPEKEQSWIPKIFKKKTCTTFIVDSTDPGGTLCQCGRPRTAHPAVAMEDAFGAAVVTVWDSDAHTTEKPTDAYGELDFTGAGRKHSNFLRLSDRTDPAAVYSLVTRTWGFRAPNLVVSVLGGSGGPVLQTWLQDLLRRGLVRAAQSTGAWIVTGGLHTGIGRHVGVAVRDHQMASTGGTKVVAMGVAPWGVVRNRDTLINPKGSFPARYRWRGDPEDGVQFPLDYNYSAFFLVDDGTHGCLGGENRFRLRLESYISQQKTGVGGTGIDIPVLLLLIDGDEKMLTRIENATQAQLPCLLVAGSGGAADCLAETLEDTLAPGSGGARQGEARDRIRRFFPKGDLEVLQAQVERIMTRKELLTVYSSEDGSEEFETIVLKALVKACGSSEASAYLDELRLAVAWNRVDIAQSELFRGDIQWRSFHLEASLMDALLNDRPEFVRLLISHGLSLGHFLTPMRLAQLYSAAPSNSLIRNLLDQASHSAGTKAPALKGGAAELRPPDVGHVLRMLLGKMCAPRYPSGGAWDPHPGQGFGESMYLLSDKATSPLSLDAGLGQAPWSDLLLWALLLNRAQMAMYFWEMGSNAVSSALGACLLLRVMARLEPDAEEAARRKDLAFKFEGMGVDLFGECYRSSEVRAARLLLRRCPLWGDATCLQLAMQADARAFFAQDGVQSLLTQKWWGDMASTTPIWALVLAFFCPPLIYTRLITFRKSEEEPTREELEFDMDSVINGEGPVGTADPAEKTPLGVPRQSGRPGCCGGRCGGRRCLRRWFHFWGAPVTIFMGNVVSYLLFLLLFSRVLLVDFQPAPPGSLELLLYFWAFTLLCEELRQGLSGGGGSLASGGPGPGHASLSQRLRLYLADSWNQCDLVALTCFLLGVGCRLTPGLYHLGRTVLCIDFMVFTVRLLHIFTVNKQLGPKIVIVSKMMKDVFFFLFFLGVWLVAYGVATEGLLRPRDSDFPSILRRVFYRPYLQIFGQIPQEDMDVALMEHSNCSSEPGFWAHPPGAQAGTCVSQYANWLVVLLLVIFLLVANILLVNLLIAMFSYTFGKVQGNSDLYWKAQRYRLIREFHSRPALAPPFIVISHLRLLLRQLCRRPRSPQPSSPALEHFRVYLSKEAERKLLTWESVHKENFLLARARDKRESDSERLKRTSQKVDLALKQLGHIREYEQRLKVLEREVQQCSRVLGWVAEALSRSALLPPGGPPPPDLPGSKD
Chain of calcium-activated IKCa1 potassium channel (O15554 whole entry): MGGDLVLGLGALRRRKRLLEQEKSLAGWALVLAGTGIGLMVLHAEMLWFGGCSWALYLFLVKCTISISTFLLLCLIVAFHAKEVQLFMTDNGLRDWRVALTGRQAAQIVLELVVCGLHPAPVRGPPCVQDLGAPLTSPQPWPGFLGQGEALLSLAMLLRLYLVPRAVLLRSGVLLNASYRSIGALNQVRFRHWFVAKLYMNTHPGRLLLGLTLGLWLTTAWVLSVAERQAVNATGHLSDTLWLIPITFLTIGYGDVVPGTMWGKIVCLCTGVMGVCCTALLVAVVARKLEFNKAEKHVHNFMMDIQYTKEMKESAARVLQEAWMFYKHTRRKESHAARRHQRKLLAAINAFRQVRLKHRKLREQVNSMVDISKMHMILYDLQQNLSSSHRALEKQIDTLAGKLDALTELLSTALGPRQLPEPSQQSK

Question: What does the source list for `CC(C)/N=c1\cc2n(-c3ccc(Cl)cc3)c3ccccc3nc-2cc1Nc1ccc(Cl)cc1` [clofazimine, Clofazimine]?
Answer: IC50 [1]: 1100 ± 260 nM; effect on binding of GST-NFATc2 to calcineurin [2]: Nor did it affect the binding; also recorded: does not interfere with calcineurin-NFATc2 interaction; effect on TRPM4 channel activity [3]: remained unaffected; mean survival time of transplanted human skin ([4]; 50 mg/kg/day orally for 10 days, n=5): 35 days; effect on human T-cell-mediated skin graft rejection ([4]; immunodeficient mice): inhibits human T-cell-mediated skin graft rejection; Hill coefficient, Kv1.3 current [5]: 0.75; IC50 ([5]; current at +80 mV, inhibition at 120 s, read-out: IC50, Kv1.3 potassium current): 300 nM; Hill coefficient, mouse Kv1.3 [6]: 0.5; IC50 ([6]; +80 mV): 470 nM; effect on IKCa1 channel activity [7]: remained unaffected; beneficial effects in mouse skin or heart transplant models [8]: failed to show any beneficial effects; NF-κB luciferase reporter less sensitive than IL-2 promoter-driven reporter [9]: about 40 fold; IC50 ([9]; Homo sapiens, Jurkat, PMA/ionomycin, n=6): 2430 ± 1250 nM; effect on enzymatic activity of calcineurin in vitro [10]: no effect on the enzymatic activity; also recorded: does not inhibit the protein phosphatase activity; block of current, mouse Kv3.1 ([11]; 10 μM): less than 50%; IC50 ([11]; inferred from block at 10 μM): > 10000 nM; cells with elongated calcium oscillation period [12]: Over 80%; cells with elongated calcium oscillation period ([12]; listed as Clofazimine): more than 80%; effect on calcium oscillation pattern ([12]; low concentration of thapsigargin): decreased the amplitude and increased the period; effect on reconstituted CRAC current [13]: no effects; effect on reconstituted CRAC current ([13]; listed as Clofazimine): without affecting
